Data as given in patent US20230180758A1, “SUBSTITUTED PYRROLINE-2-ONES AND THEIR USE AS HERBICIDES” (Bayer Aktiengesellschaft, priority 2020, published 2023).

Columns and labels:
Format in all cases: in vivo
Alopecurus myosuroides [1] = experiment: Post-emergence herbicidal effect against ALOMY; details: visual assessment after about 3 weeks, 100% = plants have died
Description: (§1) 1. Post-Emergence Herbicidal Effect and Crop Plant Compatibility
(§2) Seeds of monocotyledonous and dicotyledonous weed and crop plants are laid out in sandy loam soil in wood-fibre pots, covered with soil and cultivated in a greenhouse under good growth conditions. 2 to 3 weeks after sowing, the test plants are treated at the one-leaf stage. The compounds of the invention, formulated in the form of wettable powders (WP) or as emulsion concentrates (EC), are then sprayed onto the green parts of the plants as aqueous suspension or emulsion at a water application rate equating to 600 to 800 l/ha with addition of 0.2% wetting agent. After the test plants have been left to stand in the greenhouse under optimal growth conditions for about 3 weeks, the action of the preparations is assessed visually in comparison to untreated controls (herbicidal action in percent (%): 100% activity=the plants have died, 0% activity=like control plants).

Avena fatua [2] = experiment: Post-emergence herbicidal effect against AVEFA; details: 80 g/ha, visual assessment after about 3 weeks, 100% = plants have died
Description: as §1, §2

Digitaria sanguinalis = experiment: Post-emergence herbicidal effect against DIGSA; details: visual assessment after about 3 weeks, 100% = plants have died
Description: as §1, §2

Echinochloa crus-galli [3] = experiment: Post-emergence herbicidal effect against ECHCG; details: visual assessment after about 3 weeks
Description: as §1, §2

Lolium rigidum [4] = experiment: Post-emergence herbicidal effect against LOLRI; details: 80 g/ha, visual assessment after about 3 weeks
Description: as §1, §2

Setaria viridis = experiment: Post-emergence herbicidal effect against SETVI; details: visual assessment after about 3 weeks
Description: as §1, §2

Hordeum murinum = experiment: Post-emergence herbicidal effect against HORMU; details: 80 g/ha, visual assessment after about 3 weeks
Description: as §1, §2

Alopecurus myosuroides [5] = experiment: Pre-emergence herbicidal effect against ALOMY; details: 320 g/ha, scored visually after 3 weeks
From the text: (§3) 2. Pre-Emergence Herbicidal Effect and Crop Plant Compatibility
(§4) Seeds of monocotyledonous and dicotyledonous weed plants and crop plants are laid out in sandy loam soil in wood-fibre pots and covered with soil. The compounds of the invention, formulated in the form of wettable powders (WP) or as emulsion concentrates (EC), are then applied to the surface of the covering soil as aqueous suspension or emulsion at a water application rate equating to 600 to 800 L/ha with addition of 0.2% wetting agent.
(§5) After the treatment, the pots are placed in a greenhouse and kept under good growth conditions for the trial plants. The damage to the test plants is scored visually after a test period of 3 weeks by comparison with untreated controls (herbicidal activity in percent (%): 100% activity=the plants have died, 0% activity=like control plants).

Avena fatua [6] = experiment: Pre-emergence herbicidal effect against AVEFA; details: 320 g/ha, scored visually after 3 weeks
From the text: as §3, §4, §5

Echinochloa crus-galli [7] = experiment: Pre-emergence herbicidal effect against ECHCG; details: 320 g/ha, scored visually after 3 weeks
From the text: as §3, §4, §5

Lolium rigidum [8] = experiment: Pre-emergence herbicidal effect against LOLRI; details: scored visually after 3 weeks
From the text: as §3, §4, §5

Structure (SMILES)	Post-emergence action against ALOMY (Alopecurus myosuroides [1]; 20 g/ha) [%]	Post-emergence action against ALOMY (Alopecurus myosuroides [1]; 80 g/ha) [%]	Post-emergence action against AVEFA (Avena fatua [2]) [%]	Post-emergence action against DIGSA (Digitaria sanguinalis; 20 g/ha) [%]	Post-emergence action against DIGSA (Digitaria sanguinalis; 80 g/ha) [%]	Post-emergence action against ECHCG (Echinochloa crus-galli [3]; 80 g/ha) [%]	Post-emergence action against LOLRI (Lolium rigidum [4]) [%]	Post-emergence action against SETVI (Setaria viridis; 20 g/ha) [%]	Post-emergence action against SETVI (Setaria viridis; 80 g/ha) [%]	Post-emergence action against HORMU (Hordeum murinum) [%]	Post-emergence action against ECHCG (Echinochloa crus-galli [3]; 20 g/ha) [%]	Pre-emergence action against ALOMY (Alopecurus myosuroides [5]) [%]	Pre-emergence action against AVEFA (Avena fatua [6]) [%]	Pre-emergence action against ECHCG (Echinochloa crus-galli [7]) [%]	Pre-emergence action against LOLRI (Lolium rigidum [8]; 80 g/ha) [%]	Pre-emergence action against LOLRI (Lolium rigidum [8]; 320 g/ha) [%]
CCC(=O)OC1=C(c2c(C)cc(Cl)cc2OC)C(=O)NC12COC1(CCOCC1)OC2 [Example 3-4, 3-(4-chloro-2-methoxy-6-methylphenyl)-2-oxo-7,11,14-trioxa-1-azadispiro[4.2.5^8.2^5]pentadec-3-en-4-yl propionate]	90	100	100	100	100	100	100	80	90							
CCOC(=O)OC1=C(c2c(C)cc(C)cc2OC)C(=O)NC12COC1(CCOCC1)OC2 [Example 4-1]	100	100	100	90	90	100	100	90	100	100						
CCOC(=O)OC1=C(c2c(C)cc(Cl)cc2OC)C(=O)NC12COC1(CCOCC1)OC2 [Example 4-4, 3-(4-chloro-2-methoxy-6-methylphenyl)-2-oxo-7,11,14-trioxa-1-azadispiro[4.2.5^8.2^5]pentadec-3-en-4-yl ethyl carbonate]	90	100	80	90	90	100	90	80	90							
COc1cc(C)cc(C)c1C1=C(O)C2(COC3(CCOCC3)OC2)N(C)C1=O [Example 5-1]	80	90				100	90	90	90		100	90	100	100	100	100
COc1cc(C)cc(C)c1C1=C([O-])C2(COC3(CCOCC3)OC2)N(C)C1=O.[Na+] [Example 6-1]		90				100	90	90	90		90	100	90	100	100	100
CCOC(=O)OC1=C(c2c(C)cc(C)cc2OC)C(=O)N(C)C12COC1(CCOCC1)OC2 [Example 8-1]						90	90	80	100		80	100	100	100	100	100
